According to patent US8178571B2, “Unsubstituted and substituted 4-benzyl-1,3-dihydro-imidazole-2-thiones acting as specific or selective alpha2 adrenergic agonists and methods for using the same” (Allergan, Inc., priority 2004, dated 2012):

Legend:
Format in all cases: cell-based
[1] = target: T1, alpha2B adrenergic receptor (Homo sapiens, UniProt P18089); assay: Receptor Selection and Amplification Technology (RSAT) assay, alpha2B; conditions: for Intrinsic Activity Alpha 2B: RSAT, NIH-3T3 cells, ratio of maximal effect to that of standard full agonist brimonidine (UK14304), NA = not active at concentrations less than 10 micromolar; for Specificity or selectivity for alpha2B (and/or alpha2C) over alpha2A adrenergic receptors: statement in words, RSAT assay
T1 construct: expressed in transfected cells; host or cells: NIH-3T3 cells
T1 sequence (P18089 1-450): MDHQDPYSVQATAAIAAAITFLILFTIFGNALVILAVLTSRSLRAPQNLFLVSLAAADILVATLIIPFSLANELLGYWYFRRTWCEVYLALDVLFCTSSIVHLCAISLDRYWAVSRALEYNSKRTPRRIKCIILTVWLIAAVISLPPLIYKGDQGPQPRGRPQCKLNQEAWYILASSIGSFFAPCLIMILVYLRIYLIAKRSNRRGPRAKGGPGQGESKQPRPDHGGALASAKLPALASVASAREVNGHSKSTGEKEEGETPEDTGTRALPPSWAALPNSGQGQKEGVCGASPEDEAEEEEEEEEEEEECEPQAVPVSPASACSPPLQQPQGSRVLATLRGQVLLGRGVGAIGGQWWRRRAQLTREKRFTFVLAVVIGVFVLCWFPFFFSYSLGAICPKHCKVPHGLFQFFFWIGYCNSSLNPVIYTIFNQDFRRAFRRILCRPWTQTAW
Excerpt: (§1) The imidazole-2-thione compounds of Formula 1 and the novel compounds 1 through 5 are used in accordance with the present invention as agonists of alpha2 adrenergic receptors. Some compounds of Formula 1 may act as specific or selective agonists of alpha2B and/or to alpha2C adrenergic receptors, in preference over alpha2A adrenergic receptors. […] The specific or selective activity of the compounds of Formula 1 in general and of the novel compounds of the invention can be tested in an assay titled Receptor Selection and Amplification technology (RSAT) assay, which is described in the publication by Messier et. Al., 1995, Pharmacol. Toxicol. 76, pp. 308-311 (incorporated herein by reference) and is also described below. Another reference pertinent to this assay is Conklin et al. (1993) Nature 363:274-6, Receptor Selection and Amplification Technology (RSAT) assay, also incorporated herein by reference.
The RSAT assay measures a receptor-mediated loss of contact inhibition that results in selective proliferation of receptor-containing cells in a mixed population of confluent cells. The increase in cell number is assessed with an appropriate transfected marker gene such as beta-galactosidase, the activity of which can be easily measured in a 96-well format. Receptors that activate the G protein, Gq, elicit this response. Alpha2 receptors, which normally couple to Gi, activate the RSAT response when coexpressed with a hybrid Gq protein that has a Gi receptor recognition domain, called Gq/i5.
NIH-3T3 cells are plated at a density of 2×10^6 cells in 15 cm dishes and maintained in Dulbecco's modified Eagle's medium supplemented with 10% calf serum. One day later, cells are cotransfected by calcium phosphate precipitation with mammalian expression plasmids encoding p-SV-beta-galactosidase (5-10 μg), receptor (1-2 μg) and G protein (1-2 μg). 40 μg salmon sperm DNA may also be included in the transfection mixture. Fresh media is added on the following day and 1-2 days later, cells are harvested and frozen in 50 assay aliquots. Cells are thawed and 100 μl added to 100 μl aliquots of various concentrations of drugs in triplicate in 96-well dishes. Incubations continue 72-96 hr at 37° C. After washing with phosphate-buffered saline, beta-galactosidase enzyme activity is determined by adding 200 μl of the chromogenic substrate (consisting of 3.5 mM o-nitrophenyl-beta-D-galactopyranoside and 0.5% nonidet P-40 in phosphate buffered saline), incubating overnight at 30° C. and measuring optical density at 420 nm. The absorbance is a measure of enzyme activity, which depends on cell number and reflects a receptor-mediated cell proliferation. The efficacy or intrinsic activity is calculated as a ratio of the maximal effect of the drug to the maximal effect of a standard full agonist for each receptor subtype. Brimonidine, also called UK14304, the chemical structure of which is shown below, is used as the standard agonist for the alpha2A, alpha2B and alpha2C receptors.

[2] = target: T2, alpha2C adrenergic receptor (Homo sapiens, UniProt P18825); assay: Receptor Selection and Amplification Technology (RSAT) assay, alpha2C; conditions: NIH-3T3 cells, ratio of maximal effect to that of standard full agonist brimonidine (UK14304), NA = not active at concentrations less than 10 micromolar
T2 construct: expressed in transfected cells; host or cells: NIH-3T3 cells
T2 sequence (P18825 1-462): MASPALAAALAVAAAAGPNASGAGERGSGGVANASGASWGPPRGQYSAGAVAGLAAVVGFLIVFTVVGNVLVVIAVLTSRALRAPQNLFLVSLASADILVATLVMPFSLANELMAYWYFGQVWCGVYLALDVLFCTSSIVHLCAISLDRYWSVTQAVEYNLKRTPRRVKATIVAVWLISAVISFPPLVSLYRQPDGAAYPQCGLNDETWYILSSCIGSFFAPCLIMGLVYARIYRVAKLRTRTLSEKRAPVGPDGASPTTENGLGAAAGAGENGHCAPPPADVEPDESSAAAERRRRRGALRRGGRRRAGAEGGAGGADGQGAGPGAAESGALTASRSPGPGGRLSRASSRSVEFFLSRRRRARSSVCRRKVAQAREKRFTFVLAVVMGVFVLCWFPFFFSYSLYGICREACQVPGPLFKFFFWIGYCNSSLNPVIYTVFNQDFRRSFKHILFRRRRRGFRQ
Excerpt: as §1, with “Another reference pertinent to this assay is Conklin et al. (1993) Nature 363:274-6, Receptor Selection and Amplification Technology (RSAT) assay, also incorporated herein by reference.” left out
(§2) The RSAT assay measures a receptor-mediated loss of contact inhibition that results in selective proliferation of receptor-containing cells in a mixed population of confluent cells. The increase in cell number is assessed with an appropriate transfected marker gene such as beta-galactosidase, the activity of which can be easily measured in a 96-well format. […]
(§3) NIH-3T3 cells are plated at a density of 2×10^6 cells in 15 cm dishes and maintained in Dulbecco's modified Eagle's medium supplemented with 10% calf serum. […] The absorbance is a measure of enzyme activity, which depends on cell number and reflects a receptor-mediated cell proliferation. […]

[3] = target: T3, alpha2A adrenergic receptor (Homo sapiens, UniProt P08913); assay: Receptor Selection and Amplification Technology (RSAT) assay, alpha2A; conditions: NIH-3T3 cells, ratio of maximal effect to that of standard full agonist brimonidine (UK14304), NA = not active at concentrations less than 10 micromolar
T3 construct: expressed in transfected cells; host or cells: NIH-3T3 cells
T3 sequence (P08913 1-465): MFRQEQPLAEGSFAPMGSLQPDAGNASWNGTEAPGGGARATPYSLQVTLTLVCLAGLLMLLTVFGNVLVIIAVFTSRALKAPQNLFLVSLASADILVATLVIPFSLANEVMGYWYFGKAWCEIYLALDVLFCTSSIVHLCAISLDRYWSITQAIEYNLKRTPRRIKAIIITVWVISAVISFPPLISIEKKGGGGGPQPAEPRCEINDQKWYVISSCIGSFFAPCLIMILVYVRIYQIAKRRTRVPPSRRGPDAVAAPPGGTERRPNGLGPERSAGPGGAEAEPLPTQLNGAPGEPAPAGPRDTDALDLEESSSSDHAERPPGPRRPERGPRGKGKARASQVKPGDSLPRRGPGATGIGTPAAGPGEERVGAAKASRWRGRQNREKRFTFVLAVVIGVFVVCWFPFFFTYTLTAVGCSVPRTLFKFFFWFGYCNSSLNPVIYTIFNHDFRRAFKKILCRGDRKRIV
Excerpt: as §1, with “Another reference pertinent to this assay is Conklin et al. (1993) Nature 363:274-6, Receptor Selection and Amplification Technology (RSAT) assay, also incorporated herein by reference.” left out
as §2, §3

SMILES | Intrinsic Activity Alpha 2B [1] | Intrinsic Activity Alpha 2C [2] | Specificity or selectivity for alpha2B (and/or alpha2C) over alpha2A adrenergic receptors [1] | Intrinsic Activity Alpha 2A [3]
N#Cc1ccc(-c2ccccc2Cc2c[nH]c(=S)[nH]2)cc1 [Compound 6, 2′-(2-Thioxo-2,3-dihydro-1H-imidazol-4-ylmethyl)-biphenyl-4-carbonitrile] | 0.70 | 0.71 |  | 
Fc1ccccc1Cc1c[nH]c(=S)[nH]1 [Compound 3, 4-(2-fluoro-benzyl)-1,3-dihydro-imidazole-2-thione] | 1.3 |  | specific agonists of alpha2B agonists in preference over alpha2A and alpha2C adrenergic receptors | 
Fc1c(Cl)cccc1Cc1c[nH]c(=S)[nH]1 [Compound 2, 4-(3-chloro-2-fluoro-benzyl)-1,3-dihydro-imidazole-2-thione] | 1.05 |  |  | 0.78
Fc1ccc(Cc2c[nH]c(=S)[nH]2)cc1 [Compound 4, 4-(4-fluoro-benzyl)-1,3-dihydro-imidazole-2-thione] | 0.92 |  | specific agonists of alpha2B agonists in preference over alpha2A and alpha2C adrenergic receptors | 
S=c1[nH]cc(Cc2c(Cl)cccc2Cl)[nH]1 [Compound 1, 4-(2,6-dichloro-benzyl)-1,3-dihydro-imidazole-2-thione] | 1.11 | 1.18 |  | 0.74
S=c1[nH]cc(Cc2ccc(Cl)cc2Cl)[nH]1 [Compound 5, 4-(2,4-dichloro-benzyl)-1,3-dihydro-imidazole-2-thione] | 0.95 |  | specific agonists of alpha2B agonists in preference over alpha2A and alpha2C adrenergic receptors | 
